Experimental findings from ChEMBL document CHEMBL1135547, “Anticholinesterase activity of compounds related to geneserine tautomers. N-Oxides and 1,2-oxazines” (J Med Chem, 2002) are described below.

One experiment concerns the target Acetylcholinesterase (Homo sapiens, UniProt P22303).
A further experiment addresses Cholinesterase (Homo sapiens, UniProt P06276).

Acetylcholinesterase, sequence (P22303 whole entry): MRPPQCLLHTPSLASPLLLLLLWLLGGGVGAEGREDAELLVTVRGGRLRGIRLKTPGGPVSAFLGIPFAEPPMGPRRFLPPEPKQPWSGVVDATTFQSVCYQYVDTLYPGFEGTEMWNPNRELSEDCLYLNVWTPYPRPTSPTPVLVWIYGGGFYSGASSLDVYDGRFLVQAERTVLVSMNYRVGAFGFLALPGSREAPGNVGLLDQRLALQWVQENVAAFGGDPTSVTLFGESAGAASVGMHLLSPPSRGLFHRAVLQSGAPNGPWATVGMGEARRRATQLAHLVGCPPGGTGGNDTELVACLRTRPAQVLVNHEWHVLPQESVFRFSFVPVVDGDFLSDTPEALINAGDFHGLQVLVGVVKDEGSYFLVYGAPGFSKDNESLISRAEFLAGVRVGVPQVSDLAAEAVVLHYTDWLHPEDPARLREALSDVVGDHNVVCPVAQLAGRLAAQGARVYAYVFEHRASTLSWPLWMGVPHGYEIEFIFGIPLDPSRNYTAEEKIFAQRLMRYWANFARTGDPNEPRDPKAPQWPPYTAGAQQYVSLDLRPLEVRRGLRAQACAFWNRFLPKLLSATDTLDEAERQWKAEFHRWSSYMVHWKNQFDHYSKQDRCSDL
Cholinesterase, sequence (P06276 whole entry): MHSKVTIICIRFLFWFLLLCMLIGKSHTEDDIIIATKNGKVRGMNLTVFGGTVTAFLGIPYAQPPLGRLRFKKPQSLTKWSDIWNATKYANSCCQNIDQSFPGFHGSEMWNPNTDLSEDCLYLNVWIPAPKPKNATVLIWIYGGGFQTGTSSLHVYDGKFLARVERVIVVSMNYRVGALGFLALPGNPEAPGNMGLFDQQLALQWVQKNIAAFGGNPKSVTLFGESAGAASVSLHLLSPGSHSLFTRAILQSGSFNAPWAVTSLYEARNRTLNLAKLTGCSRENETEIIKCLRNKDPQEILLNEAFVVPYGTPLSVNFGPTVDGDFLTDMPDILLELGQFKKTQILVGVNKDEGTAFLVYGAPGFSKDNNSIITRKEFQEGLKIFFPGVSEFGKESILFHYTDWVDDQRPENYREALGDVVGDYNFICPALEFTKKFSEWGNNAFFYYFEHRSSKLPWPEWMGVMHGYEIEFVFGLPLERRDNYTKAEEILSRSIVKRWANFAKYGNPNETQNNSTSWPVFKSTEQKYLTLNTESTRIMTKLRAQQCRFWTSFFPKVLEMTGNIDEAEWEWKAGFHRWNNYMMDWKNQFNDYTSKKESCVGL
Description for Acetylcholinesterase: Ex vivo inhibition of human erythrocyte Acetylcholinesterase.

As usually defined, the IC50 is the midpoint of a concentration-inhibition curve. Low values mean inhibition by little substance, high ones a need for much substance. For `CN1CC[C@@]2(C)c3cc(OC(=O)Nc4ccccc4)ccc3N(C)[C@H]2O1`, the half-maximal inhibitory concentration (IC50) against Acetylcholinesterase came out at 130 nM; against Cholinesterase it was 815 nM. The like results for `Cc1ccccc1NC(=O)Oc1ccc2c(c1)[C@]1(C)CCN(C)O[C@@H]1N2C` were, in that order, 175 nM and 1570 nM.

In the case of `CC(C)c1ccc(NC(=O)Oc2ccc3c(c2)[C@]2(C)CCN(C)O[C@@H]2N3C)cc1`, the half-maximal inhibitory concentration (IC50) against Acetylcholinesterase is greater than 10000 nM; against Cholinesterase, 25 nM.

On to `CCc1ccccc1NC(=O)Oc1ccc2c(c1)[C@]1(C)CC[N@@+](C)([O-])[C@@H]1N2C`, for which the half-inhibitory concentration (IC50) against Acetylcholinesterase is 125 nM; on Cholinesterase, 1700 nM. For `CNC(=O)Oc1ccc2c(c1)[C@]1(C)CC[N@@+](C)([O-])[C@@H]1N2C`, the IC50 against Acetylcholinesterase was determined as 100 nM; against Cholinesterase, 660 nM.

Consider `CN1c2ccc(OC(=O)Nc3ccccc3)cc2[C@]2(C)CC[N@@+](C)([O-])[C@H]12`, for which the 50% inhibitory concentration (IC50) against Acetylcholinesterase was 200 nM; against Cholinesterase, greater than 10000 nM. For the molecule `Cc1ccccc1NC(=O)Oc1ccc2c(c1)[C@]1(C)CC[N@@+](C)([O-])[C@@H]1N2C`, the IC50 on Acetylcholinesterase is 180 nM; on Cholinesterase, greater than 10000 nM. Regarding `CC(C)c1ccc(NC(=O)Oc2ccc3c(c2)[C@]2(C)CC[N@@+](C)([O-])[C@@H]2N3C)cc1`, the IC50 against Acetylcholinesterase is greater than 10000 nM; at Cholinesterase it was 5200 nM. Regarding `CCCCCCCNC(=O)Oc1ccc2c(c1)[C@]1(C)CCN(C)[C@@H]1N2C` [EPTASTIGMINE], the values for the half-maximal inhibitory concentration (IC50) against Acetylcholinesterase and against Cholinesterase were 22 nM and 5 nM, respectively.

On to `CNC(=O)Oc1ccc2c(c1)[C@]1(C)CCN(C)O[C@@H]1N2C` [ESERIDINE], for which, on Cholinesterase, the concentration for half-maximal inhibition (IC50) is 12 nM. Take `CCc1ccccc1NC(=O)Oc1ccc2c(c1)[C@]1(C)CCN(C)O[C@@H]1N2C` [GANSTIGMINE]: the results for the IC50 against Acetylcholinesterase and against Cholinesterase were 65 nM and 310 nM, respectively. Molecule `C/C=C1\[C@H]2C=C(C)C[C@]1(N)c1ccc(=O)[nH]c1C2` [HUPERZINE A] returned an IC50 on Cholinesterase greater than 10000 nM.
